According to patent US20180370912A1, “COMPOUNDS AND METHODS FOR TREATING DISEASES MEDIATED BY PROTEIN DISULFIDE ISOMERASE” (Beth Israel Deaconess Medical Center, Inc., priority 2017, published 2018):

Tests used:
[1] = biological target: T1, thioredoxin (Homo sapiens, UniProt P10599); experiment: Insulin reductase assay, thiol isomerase selectivity; assay type: biochemical; settings: 10-fold IC50, FIG. 2
T1 sequence (P10599 1-105): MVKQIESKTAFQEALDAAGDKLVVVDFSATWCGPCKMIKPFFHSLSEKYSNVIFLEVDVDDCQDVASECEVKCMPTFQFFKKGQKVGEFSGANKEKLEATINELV
Procedure: (§1) The thiol isomerase-catalyzed reduction of insulin was assayed by measuring the increase in turbidity as detected at an optical density (OD) of 650 nm using a Spectramax M3 (Molecular Devices, Sunnyvale, Calif.). The validation assay consisted of 175 nM of PDI in a solution containing 100 mM potassium phosphate (pH 7.4) containing 0.2 mM bovine insulin, 2 mM EDTA, and 0.3 mM DTT (all purchased from Sigma Aldrich, St. Louis, Mo.), inhibitors were used at the concentrations indicated. The reaction was performed at 25° C. for one hour and thirty minutes. For assays of thiol isomerase selectivity, 11 nM PDI, ERp57 or Thioredoxin, or 33 nM ERpS were assayed in similar buffer conditions as described above and inhibitors were used at the indicated concentration. The reaction was performed at 37° C. for forty-five minutes. For assays of isolated domains studies, 400 nM protein was used, except for a, a′ and ab, in which 800 nM protein was used. The assay was performed in similar buffer conditions as described above. Bepristat 2a and N-(2,4-Dimethoxyphenyl)-N-(1-oxo-2-propyn-1-yl)-2-(2-thienyl)glycyl-glycine ethyl ester (PACMA-31) were used at a final concentration of 15 μM in these studies.

[2] = biological target: T2, ERp5 (Homo sapiens, UniProt Q15084); experiment: as above; assay type: biochemical; settings: 10-fold IC50, FIG. 2
T2 construct: recombinant His-tagged full-length ERp5, ERp72 and PDI domain fragments; His; made in house; host or cells: Escherichia coli Origami B (DE3), pET-15b
T2 sequence (Q15084 20-440): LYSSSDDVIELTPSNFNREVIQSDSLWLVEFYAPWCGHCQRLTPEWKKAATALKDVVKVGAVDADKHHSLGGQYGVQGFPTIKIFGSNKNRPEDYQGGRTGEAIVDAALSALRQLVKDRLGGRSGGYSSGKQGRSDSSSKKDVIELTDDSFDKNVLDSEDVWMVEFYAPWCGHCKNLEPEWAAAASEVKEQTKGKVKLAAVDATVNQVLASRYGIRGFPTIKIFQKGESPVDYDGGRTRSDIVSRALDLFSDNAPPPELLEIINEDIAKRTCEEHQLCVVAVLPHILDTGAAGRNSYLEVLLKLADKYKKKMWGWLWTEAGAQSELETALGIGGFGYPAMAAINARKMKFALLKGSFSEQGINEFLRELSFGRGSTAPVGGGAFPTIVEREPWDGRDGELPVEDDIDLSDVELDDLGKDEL
Procedure: as §1

[3] = biological target: T1, thioredoxin; experiment: Maleimide-polyethylene glycol-2-biotin (MPB) binding; settings: 150 μM inhibitor, FIG. 2c, FIG. 8
Procedure: Maleimide-Polyethanol glycol-2-Biotin (MPB) binding experiments were performed in a reaction volume of 37.5 μL with 5 μM of thiol isomerase or bovine serum albumin (BSA) in Tris-buffered saline (TBS), in the presence and absence of 1 mM of N-ethylmaleimide (NEM) or bacitracin, and 150 μM of the mentioned other inhibitors. The reaction mixture was incubated at 37° C. for 1 hour. Subsequently, the reaction mixtures were incubated with 25 μM of MPB. The labeling was performed for 20 minutes at 25° C. A total of 12.5 μL of 4× Laemmli Sample Buffer with 5% β-mercaptoethanol was added to each of the samples, followed by heating at 95° C. for 10 minutes. From each sample, 10 μL was loaded on a 12% SDS-PAGE gel, followed by transfer on a nitrocellulose membrane. After blocking the membrane with TBS-T containing 5% BSA for one hour, the membrane was incubated with a 1:2000 dilution of Cy5-tagged Streptavidin for an hour in the dark. Detection of the immunoblots was performed using ImageQuant LAS 4000 and analysis was performed using ImageQuant TL software.

[4] = biological target: T3, PDI fragments abb′ and b′xa′ (Homo sapiens, UniProt P07237); experiment: Di-eosin-GSSG reductase assay of PDI fragments; assay type: biochemical; settings: 30 μM, FIG. 5a
T3 construct: abb′ (residues 1-331), or b′xa′ (residues 219-462); His; made in house; host or cells: Escherichia coli Origami B (DE3), pET-15b
T3 sequence (P07237 18-348): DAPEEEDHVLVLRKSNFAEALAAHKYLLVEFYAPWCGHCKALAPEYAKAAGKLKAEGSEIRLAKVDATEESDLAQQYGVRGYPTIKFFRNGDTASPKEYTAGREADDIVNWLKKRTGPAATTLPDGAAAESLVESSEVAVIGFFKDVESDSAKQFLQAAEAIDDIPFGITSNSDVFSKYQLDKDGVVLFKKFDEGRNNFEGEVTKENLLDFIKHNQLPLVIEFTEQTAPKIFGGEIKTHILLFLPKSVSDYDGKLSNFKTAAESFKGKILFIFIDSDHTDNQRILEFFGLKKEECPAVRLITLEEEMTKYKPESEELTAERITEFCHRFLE
Procedure: (§2) The probe di-eosin glutathione disulfide, di-eosin-GSSG, was prepared as previously described in Raturi, A., Vacratsis, P. O., Seslija, D., Lee, L. & Mutus, B., Biochem J 391, 351-357 (2005). Reductase activity of purified thiol isomerases and PDI domains was monitored in a 96-well fluorescence plate format. PDI, AGHA-PDI, ERpS, ERp57, ERp72 and PDI domains were assayed at 50 nM in the presence or absence of the indicated small molecules, peptides or cathepsin G. The assay included 100 mM potassium phosphate (pH 7.4) containing 2 mM EDTA, 5 μM DTT and 150 nM of the di-eosin GSSG probe. The increase in fluorescence was determined for 20 minutes by excitation at 520 nm and emission at 550 nm in a Synergy Biotek 4. The reduction of 150 nM di-eosin-GSSG by 5 μM DTT in the presence or absence of mentioned small molecules, peptides or proteins served as a negative control.

[5] = biological target: T4, PDI fragments abb′ and b′xa′ (Homo sapiens, UniProt P07237); experiment: Di-eosin-GSSG reductase assay of PDI fragments; assay type: biochemical; settings: 30 μM, FIG. 5a; remark: listed apart in the source
T4 construct: abb′ (residues 1-331), or b′xa′ (residues 219-462); His; made in house; host or cells: Escherichia coli Origami B (DE3), pET-15b
Procedure: as §2
T4 sequence (P07237 236-479): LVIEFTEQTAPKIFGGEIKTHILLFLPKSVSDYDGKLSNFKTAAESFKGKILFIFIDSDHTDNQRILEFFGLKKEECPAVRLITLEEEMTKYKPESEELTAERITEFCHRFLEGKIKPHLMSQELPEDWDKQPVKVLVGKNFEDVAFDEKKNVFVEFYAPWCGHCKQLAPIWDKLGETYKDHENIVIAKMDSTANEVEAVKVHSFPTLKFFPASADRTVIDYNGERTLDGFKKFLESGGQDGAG

SMILES | inhibition of reductase activity of thioredoxin [1] | inhibition of reductase activity of ERp5 [2] | reaction of MPB with the catalytic cysteines of thioredoxin [3] | di-eosin-GSSG cleavage by abb′ fragment [4] | di-eosin-GSSG cleavage by b′xa′ fragment [5]
C#CC(=O)N(c1ccc(OC)cc1OC)C(C(=O)NCC(=O)OCC)c1cccs1 (centres unmarked) [PACMA-31, N-(2,4-Dimethoxyphenyl)-N-(1-oxo-2-propyn-1-yl)-2-(2-thienyl)glycyl-glycine ethyl ester, reference compound] | demonstrated inhibitory activity | demonstrated inhibitory activity | interfered with the reaction of maleimide-polyethylene glycol-2-biotin (MPB) |  | 
CCOC(=O)c1c(CNCCN(CC)CC)n(-c2ccccc2)c2cc(Br)c(O)cc12 [bepristat 2a] |  |  |  | failed to augment activity | significantly augmented the catalytic activity
